Reference: ChEMBL document CHEMBL5291721, “A preclinical secondary pharmacology resource illuminates target-adverse drug reaction associations of marketed drugs” (Nat Commun, 2023)

Tests used:
Acetylcholinesterase = Acetylcholinesterase (Homo sapiens, UniProt P22303); format: functional
Thromboxane A2 receptor [1] = target: T1, Thromboxane A2 receptor (Homo sapiens, UniProt P21731); format: functional, cell-based
T1 sequence (P21731 whole entry): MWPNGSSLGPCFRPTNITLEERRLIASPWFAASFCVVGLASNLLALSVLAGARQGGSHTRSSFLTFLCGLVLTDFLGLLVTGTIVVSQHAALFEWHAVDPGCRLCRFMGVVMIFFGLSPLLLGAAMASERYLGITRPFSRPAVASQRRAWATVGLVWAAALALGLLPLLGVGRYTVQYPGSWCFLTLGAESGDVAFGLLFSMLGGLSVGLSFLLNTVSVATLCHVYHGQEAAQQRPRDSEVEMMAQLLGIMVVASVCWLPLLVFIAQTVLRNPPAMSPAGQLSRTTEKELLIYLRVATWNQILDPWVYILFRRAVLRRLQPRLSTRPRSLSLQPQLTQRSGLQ

Prothrombin = Prothrombin (Homo sapiens, UniProt P00734); format: functional
Histamine H3 receptor = Histamine H3 receptor (Homo sapiens, UniProt Q9Y5N1)
[2] = target: T2, Amine oxidase [flavin-containing] A (Homo sapiens, UniProt P21397); format: functional
T2 sequence (P21397 whole entry): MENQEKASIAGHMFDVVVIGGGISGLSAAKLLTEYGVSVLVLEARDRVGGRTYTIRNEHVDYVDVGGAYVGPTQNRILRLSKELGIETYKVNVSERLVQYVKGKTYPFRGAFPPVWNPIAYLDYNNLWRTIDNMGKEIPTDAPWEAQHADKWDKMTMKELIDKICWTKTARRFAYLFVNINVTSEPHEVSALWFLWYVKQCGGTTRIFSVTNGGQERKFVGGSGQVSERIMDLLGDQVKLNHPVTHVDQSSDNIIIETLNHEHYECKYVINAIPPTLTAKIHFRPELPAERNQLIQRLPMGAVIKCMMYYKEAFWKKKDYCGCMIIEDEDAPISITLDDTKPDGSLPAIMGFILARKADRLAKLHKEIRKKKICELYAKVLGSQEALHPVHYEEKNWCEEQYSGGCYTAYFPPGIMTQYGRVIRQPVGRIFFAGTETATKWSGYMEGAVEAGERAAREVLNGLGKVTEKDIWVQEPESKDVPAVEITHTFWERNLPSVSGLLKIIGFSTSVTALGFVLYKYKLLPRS

[3] = target: cGMP-inhibited 3',5'-cyclic phosphodiesterase 3A (Homo sapiens, UniProt Q14432); format: functional
[4] = target: T3, Muscarinic acetylcholine receptor M2 (Homo sapiens, UniProt P08172)
T3 sequence (P08172 whole entry): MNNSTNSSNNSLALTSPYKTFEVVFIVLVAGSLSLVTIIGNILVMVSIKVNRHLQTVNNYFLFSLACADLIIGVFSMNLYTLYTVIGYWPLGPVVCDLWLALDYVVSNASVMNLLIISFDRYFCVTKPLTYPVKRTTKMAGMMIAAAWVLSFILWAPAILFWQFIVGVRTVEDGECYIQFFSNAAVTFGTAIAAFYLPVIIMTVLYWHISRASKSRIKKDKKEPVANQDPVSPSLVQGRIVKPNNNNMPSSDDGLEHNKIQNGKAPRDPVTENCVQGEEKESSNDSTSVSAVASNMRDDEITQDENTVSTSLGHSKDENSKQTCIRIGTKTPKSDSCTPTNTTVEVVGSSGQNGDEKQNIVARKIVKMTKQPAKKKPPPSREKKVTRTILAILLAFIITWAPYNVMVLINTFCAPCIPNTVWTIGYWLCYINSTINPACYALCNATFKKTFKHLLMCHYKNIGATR

[5] = target: Sodium-dependent dopamine transporter (Homo sapiens, UniProt Q01959)
[6] = target: T4, Alpha-2A adrenergic receptor (Homo sapiens, UniProt P08913)
T4 sequence (P08913 whole entry): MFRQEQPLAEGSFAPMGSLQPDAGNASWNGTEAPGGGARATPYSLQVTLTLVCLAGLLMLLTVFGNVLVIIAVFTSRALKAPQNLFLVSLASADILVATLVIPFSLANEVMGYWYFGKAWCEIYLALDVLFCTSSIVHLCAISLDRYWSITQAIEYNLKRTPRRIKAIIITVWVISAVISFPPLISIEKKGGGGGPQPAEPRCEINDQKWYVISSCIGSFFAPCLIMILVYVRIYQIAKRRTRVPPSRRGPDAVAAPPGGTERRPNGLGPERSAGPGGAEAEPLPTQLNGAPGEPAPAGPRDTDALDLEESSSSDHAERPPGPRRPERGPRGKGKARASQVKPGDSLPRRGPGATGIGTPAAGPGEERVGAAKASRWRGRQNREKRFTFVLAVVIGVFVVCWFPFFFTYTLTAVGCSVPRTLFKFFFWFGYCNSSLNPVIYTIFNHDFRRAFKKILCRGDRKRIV

[7] = target: Voltage-gated inwardly rectifying potassium channel KCNH2 (Homo sapiens, UniProt Q12809); format: functional
[8] = target: 3',5'-cyclic-AMP phosphodiesterase 4A (Homo sapiens, UniProt P27815); format: functional
[9] = target: T5, 5-hydroxytryptamine receptor 1A (Homo sapiens, UniProt P08908)
T5 sequence (P08908 whole entry): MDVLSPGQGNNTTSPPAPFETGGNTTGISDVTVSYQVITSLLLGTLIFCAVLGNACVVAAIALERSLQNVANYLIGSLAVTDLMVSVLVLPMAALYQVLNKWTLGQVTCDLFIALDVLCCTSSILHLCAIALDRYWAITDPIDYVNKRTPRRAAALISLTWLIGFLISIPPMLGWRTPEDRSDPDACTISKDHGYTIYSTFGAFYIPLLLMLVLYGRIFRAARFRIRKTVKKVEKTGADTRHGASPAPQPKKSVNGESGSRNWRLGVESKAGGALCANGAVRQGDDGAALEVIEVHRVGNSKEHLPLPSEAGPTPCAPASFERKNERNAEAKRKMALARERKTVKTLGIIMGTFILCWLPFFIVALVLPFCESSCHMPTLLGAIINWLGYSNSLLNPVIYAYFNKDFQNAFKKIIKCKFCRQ

[10] = target: 5-hydroxytryptamine receptor 2B (Homo sapiens, UniProt P41595); format: functional, cell-based
Thromboxane A2 receptor [11] = target: T1, Thromboxane A2 receptor; format: functional, cell-based; remark: listed apart in the source

Measured: AC50
Further: assay procedure not described here.

Chain of 3',5'-cyclic-AMP phosphodiesterase 4A (P27815 whole entry): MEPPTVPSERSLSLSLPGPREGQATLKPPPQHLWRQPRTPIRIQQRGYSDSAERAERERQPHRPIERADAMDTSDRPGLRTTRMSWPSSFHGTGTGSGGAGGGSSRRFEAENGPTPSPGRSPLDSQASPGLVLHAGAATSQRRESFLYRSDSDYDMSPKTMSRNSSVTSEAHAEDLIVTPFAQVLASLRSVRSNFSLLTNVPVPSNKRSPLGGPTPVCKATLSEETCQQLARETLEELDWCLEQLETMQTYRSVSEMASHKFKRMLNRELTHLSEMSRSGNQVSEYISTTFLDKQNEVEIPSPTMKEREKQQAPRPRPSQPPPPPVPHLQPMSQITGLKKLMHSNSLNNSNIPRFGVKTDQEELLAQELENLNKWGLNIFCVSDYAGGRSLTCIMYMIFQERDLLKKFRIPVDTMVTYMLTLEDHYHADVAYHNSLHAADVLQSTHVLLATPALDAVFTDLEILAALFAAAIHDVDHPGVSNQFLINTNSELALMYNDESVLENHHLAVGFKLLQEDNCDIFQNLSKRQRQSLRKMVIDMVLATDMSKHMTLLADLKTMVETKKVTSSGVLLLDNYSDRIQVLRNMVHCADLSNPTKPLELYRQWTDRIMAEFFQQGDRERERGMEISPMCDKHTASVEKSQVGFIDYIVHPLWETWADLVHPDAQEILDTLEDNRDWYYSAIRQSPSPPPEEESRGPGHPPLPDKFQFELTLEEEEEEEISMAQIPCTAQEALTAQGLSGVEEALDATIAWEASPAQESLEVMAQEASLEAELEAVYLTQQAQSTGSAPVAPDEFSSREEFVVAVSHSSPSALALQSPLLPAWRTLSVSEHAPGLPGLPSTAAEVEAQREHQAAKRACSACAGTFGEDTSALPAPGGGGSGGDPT
Chain of Histamine H3 receptor (Q9Y5N1 whole entry): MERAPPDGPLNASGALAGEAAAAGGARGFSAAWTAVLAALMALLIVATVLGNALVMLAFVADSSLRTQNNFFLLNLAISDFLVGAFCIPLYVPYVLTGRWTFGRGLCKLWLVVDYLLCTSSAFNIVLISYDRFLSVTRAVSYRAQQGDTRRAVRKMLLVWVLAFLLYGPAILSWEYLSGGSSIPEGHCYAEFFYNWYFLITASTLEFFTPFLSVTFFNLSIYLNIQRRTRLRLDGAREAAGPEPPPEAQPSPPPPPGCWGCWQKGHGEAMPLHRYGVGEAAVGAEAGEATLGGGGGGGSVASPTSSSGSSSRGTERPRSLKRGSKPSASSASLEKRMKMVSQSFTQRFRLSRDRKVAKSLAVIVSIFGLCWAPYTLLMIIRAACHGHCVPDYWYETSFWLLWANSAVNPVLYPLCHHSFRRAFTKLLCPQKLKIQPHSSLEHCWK
Chain of Voltage-gated inwardly rectifying potassium channel KCNH2 (Q12809 whole entry): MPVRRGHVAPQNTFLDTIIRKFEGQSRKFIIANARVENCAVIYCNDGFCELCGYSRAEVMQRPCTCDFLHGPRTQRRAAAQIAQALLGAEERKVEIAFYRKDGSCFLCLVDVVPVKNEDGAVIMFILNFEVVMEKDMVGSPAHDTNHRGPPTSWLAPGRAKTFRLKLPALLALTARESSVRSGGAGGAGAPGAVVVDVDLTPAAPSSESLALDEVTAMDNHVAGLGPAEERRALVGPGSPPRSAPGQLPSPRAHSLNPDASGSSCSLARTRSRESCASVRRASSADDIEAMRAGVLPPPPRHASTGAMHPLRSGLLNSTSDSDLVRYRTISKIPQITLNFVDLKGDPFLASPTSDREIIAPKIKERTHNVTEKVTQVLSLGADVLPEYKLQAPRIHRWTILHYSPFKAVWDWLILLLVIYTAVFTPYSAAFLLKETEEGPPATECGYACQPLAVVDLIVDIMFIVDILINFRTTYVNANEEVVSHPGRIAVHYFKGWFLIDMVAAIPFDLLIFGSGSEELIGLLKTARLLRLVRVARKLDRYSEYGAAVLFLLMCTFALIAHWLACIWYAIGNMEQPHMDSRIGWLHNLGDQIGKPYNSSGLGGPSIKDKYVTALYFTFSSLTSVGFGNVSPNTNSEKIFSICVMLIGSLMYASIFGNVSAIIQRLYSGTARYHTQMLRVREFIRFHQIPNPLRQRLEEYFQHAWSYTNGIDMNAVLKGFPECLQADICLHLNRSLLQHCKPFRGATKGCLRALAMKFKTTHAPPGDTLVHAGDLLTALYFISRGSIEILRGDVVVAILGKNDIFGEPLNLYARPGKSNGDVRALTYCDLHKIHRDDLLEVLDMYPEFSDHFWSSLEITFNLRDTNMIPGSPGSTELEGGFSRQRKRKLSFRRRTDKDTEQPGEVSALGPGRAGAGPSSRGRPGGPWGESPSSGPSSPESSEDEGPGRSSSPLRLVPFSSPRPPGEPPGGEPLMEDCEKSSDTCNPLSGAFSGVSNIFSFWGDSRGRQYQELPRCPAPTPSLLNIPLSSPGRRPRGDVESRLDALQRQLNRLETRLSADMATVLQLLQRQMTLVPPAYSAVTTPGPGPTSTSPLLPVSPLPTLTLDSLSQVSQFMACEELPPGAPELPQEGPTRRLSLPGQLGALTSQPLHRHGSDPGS
Chain of 5-hydroxytryptamine receptor 2B (P41595 whole entry): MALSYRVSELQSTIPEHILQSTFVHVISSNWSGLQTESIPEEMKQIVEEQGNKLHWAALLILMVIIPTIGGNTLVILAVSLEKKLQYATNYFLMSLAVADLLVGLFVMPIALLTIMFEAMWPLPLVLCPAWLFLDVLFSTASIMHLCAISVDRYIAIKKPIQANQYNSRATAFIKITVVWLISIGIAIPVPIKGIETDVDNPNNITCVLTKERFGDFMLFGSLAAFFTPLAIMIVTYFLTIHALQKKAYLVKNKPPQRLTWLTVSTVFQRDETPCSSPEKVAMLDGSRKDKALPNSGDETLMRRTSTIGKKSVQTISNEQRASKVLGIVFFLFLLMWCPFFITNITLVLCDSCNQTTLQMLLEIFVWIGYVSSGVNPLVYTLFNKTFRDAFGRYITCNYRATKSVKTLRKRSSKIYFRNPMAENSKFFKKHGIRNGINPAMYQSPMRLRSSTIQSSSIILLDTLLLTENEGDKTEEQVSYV
Chain of cGMP-inhibited 3',5'-cyclic phosphodiesterase 3A (Q14432 whole entry): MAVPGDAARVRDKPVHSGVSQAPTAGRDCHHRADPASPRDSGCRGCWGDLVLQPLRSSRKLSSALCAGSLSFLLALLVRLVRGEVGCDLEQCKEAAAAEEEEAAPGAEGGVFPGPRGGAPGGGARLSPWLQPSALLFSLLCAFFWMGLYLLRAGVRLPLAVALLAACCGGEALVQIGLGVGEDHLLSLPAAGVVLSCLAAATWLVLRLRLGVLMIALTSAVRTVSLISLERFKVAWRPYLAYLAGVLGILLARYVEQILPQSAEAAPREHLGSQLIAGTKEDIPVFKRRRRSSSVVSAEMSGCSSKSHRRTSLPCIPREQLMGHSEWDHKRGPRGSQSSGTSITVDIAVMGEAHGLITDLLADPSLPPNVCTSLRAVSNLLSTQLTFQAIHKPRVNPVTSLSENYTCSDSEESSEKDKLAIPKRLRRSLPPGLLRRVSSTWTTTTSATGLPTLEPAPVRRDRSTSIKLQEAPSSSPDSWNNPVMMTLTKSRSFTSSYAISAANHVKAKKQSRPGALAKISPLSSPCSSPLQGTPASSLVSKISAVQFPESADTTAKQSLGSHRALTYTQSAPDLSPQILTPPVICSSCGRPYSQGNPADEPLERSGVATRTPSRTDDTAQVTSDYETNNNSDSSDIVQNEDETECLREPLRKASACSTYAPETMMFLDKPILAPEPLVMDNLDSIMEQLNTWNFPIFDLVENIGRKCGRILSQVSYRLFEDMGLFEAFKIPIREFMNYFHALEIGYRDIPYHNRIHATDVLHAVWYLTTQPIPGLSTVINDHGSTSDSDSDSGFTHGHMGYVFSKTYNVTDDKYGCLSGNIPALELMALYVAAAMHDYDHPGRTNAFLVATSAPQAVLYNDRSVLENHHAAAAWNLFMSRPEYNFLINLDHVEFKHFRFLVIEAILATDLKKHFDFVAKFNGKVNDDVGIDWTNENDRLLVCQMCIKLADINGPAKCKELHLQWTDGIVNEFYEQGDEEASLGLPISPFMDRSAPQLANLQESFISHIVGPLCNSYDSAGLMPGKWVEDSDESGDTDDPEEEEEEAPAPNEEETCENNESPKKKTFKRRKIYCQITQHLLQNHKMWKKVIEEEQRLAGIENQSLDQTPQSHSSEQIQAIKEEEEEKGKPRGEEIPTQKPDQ
Chain of Acetylcholinesterase (P22303 whole entry): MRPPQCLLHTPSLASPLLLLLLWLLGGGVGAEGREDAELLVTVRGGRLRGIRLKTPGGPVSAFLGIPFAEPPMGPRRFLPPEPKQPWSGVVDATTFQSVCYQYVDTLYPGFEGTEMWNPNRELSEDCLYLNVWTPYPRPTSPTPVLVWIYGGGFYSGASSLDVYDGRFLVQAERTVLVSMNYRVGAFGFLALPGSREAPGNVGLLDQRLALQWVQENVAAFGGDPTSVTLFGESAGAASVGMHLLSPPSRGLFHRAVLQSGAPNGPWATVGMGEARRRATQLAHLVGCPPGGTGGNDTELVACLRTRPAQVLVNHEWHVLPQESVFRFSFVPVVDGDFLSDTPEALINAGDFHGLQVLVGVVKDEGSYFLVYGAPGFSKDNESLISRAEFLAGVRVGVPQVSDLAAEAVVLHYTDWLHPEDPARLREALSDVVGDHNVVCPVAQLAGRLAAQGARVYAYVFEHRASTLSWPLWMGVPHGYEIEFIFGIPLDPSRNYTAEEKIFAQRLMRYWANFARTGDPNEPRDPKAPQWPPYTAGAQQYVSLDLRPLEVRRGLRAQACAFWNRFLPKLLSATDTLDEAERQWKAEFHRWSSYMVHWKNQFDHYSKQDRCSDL

C=C1CC[C@H](O)C/C1=C/C=C1\CCC[C@]2(C)[C@@H]([C@H](C)CCCC(C)C)CC[C@@H]12 [CHOLECALCIFEROL]
22.4 µM: Thromboxane A2 receptor [1]
> 3 µM: [3]
> 30 µM: all other assays above

O=S1(=O)CCN(CN2CCS(=O)(=O)NC2)CN1 [TAUROLIDINE]
> 30 µM: all assays above

CC(C)(C)NC(=O)N[C@H](C(=O)N1C[C@H]2[C@@H]([C@H]1C(=O)NC(CC1CCC1)C(=O)C(N)=O)C2(C)C)C(C)(C)C (stereo partly specified) [BOCEPREVIR]
> 30 µM: all assays above

Cc1ncc2c(c1O)COC2c1ccc(Cl)cc1 (stereo unspecified) [CICLETANINE]
> 30 µM: all assays above

Cc1ccc(S(=O)(=O)NC(=O)NC2CCCCC2)cc1 [GLYCYCLAMIDE]
> 30 µM: all assays above

CC(=O)O[C@H]1Cc2ccccc2N(C(N)=O)c2ccccc21 [ESLICARBAZEPINE ACETATE]
> 30 µM: all assays above

COC(=O)C[C@](O)(CCCC(C)(C)O)C(=O)O[C@@H]1C(OC)=C[C@]23CCCN2CCc2cc4c(cc2[C@H]13)OCO4 [OMACETAXINE MEPESUCCINATE]
> 30 µM: all assays above

CCCn1cnc2c1c(=O)n(CCCCC(C)=O)c(=O)n2C [PROPENTOFYLLINE]
8.96 µM: [8]
> 30 µM: all other assays above

Cc1ccc(C(=O)C(C)CN2CCCCC2)cc1 (stereo unspecified) [TOLPERISONE]
4.74 µM: Histamine H3 receptor
3.7 µM: [4]
> 30 µM: all other assays above
